Values of other authors as cited in patent US7056538B2, “Disinfectant solution based on sodium hypochlorite, and process for preparing it” (Aziende Chimiche Riunite Angelini Francesco A.C.R.A.F. …, priority 2001, dated 2006).

Conditions: 25° C.

OCl [hypochlorous acid]
dissociation constant pKa: 7.49
